Measured values: ChEMBL document CHEMBL3991943, “Pharmaceutical formulations comprising salts of a protein kinase inhibitor and methods of using same” (2013)

Key:
[1] = Solubility of the compound in PBS buffer at pH 7; assay type: physicochemical
[2] = Solubility of the compound in water by HPLC analysis; assay type: physicochemical

SMILES	solubility [1]	solubility [2]
O=S(=O)(O)O.S=C(NCc1ccc2c(c1)OCO2)N1CCN(c2ncnc3c2oc2ccccc23)CC1	1.7 µg/mL	3.3 µg/mL
Cc1ccc(S(=O)(=O)O)cc1.S=C(NCc1ccc2c(c1)OCO2)N1CCN(c2ncnc3c2oc2ccccc23)CC1	–	1.87 µg/mL
O=S(=O)(O)c1ccccc1.S=C(NCc1ccc2c(c1)OCO2)N1CCN(c2ncnc3c2oc2ccccc23)CC1	–	4.26 µg/mL
CS(=O)(=O)O.S=C(NCc1ccc2c(c1)OCO2)N1CCN(c2ncnc3c2oc2ccccc23)CC1	2.16 µg/mL	5.96 µg/mL
